Measurements taken from patent US9409952B2, “Peptide-compound cyclization method” (Chugai Seiyaku Kabushiki Kaisha, priority 2011, dated 2016).
Where two headings read alike, the source gives them in different places. Starred links: 1 amine or outer side, 2 acyl side, 3 side chain; linkers in the order of their positions; H or OH if unused. Positions of bridges follow the written chain, without caps; N, C: chain ends. Non-standard residues stand in square brackets, D forms with d. Residues, ends and D or L forms follow the SMILES beside them. *: point of attachment. NMeF = CN[C@@H](Cc1ccccc1)C(=O)O; NMeGABA = CN(CCCC(=O)[*:2])[*:1]; NMeI = CC[C@H](C)[C@H](NC)C(=O)O; hPhe = N[C@@H](CCc1ccccc1)C(=O)O; NMeβAla = CN(CCC(=O)[*:2])[*:1]; NMeL = CN[C@@H](CC(C)C)C(=O)O; NMeV = CN[C@H](C(=O)O)C(C)C; NMeA = CN[C@@H](C)C(=O)O; Piperidide = C1CCN(*)CC1; dNMeA = CN[C@H](C)C(=O)O; β3hA = C[C@H](N)CC(=O)O; Sar = CNCC(=O)O; tBu = CC(C)(C)*

Key:
[1] = PAMPA (parallel artificial membrane permeability assay); format: in vitro ADME; settings: PAMPA
Summary of the method: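 Artificial membrane was 10% (w/v) egg lecithin plus 0.5% (w/v) cholesterol in dodecane on a PVDF filter. A 10 mM DMSO stock was added at 0.5% (v/v) to donor buffer (50 mM MOPSO, pH 6.5, 5.0% glycocholic acid). After 18 h at 37 °C, LC/MS or LC/UV gave donor and acceptor levels for Pe.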

[2] = Metabolic stability in human hepatic microsome; format: in vitro ADME; settings: microsomes
[3] = membrane permeation rate (Pe), 50 mM MOPSO buffer pH 6.5 with 5.0% glycocholic acid, 37° C., 18 hours, read-out: iPAMPA Pe
[4] = pH 7.4, human hepatic microsome, NADPH(+), read-out: CL NADPH(+)

Compound	Papp at 18 hours, 50 µM [1, 3] [×10⁻⁶ cm/s]	microsomal CLint at 1 uM [2, 4] [µL/min/mg]	Papp at 18 hours, 50 µM ([1]; pH 6.5) [×10⁻⁶ cm/s]	microsomal CLint at 1 uM ([2]; human, pH 7.4, CL NADPH(+)) [µL/min/mg]
CC[C@H](C)[C@@H]1NC(=O)[C@H](C)N(C)C(=O)[C@H](C)N(C)C(=O)[C@H]([C@@H](C)O)NC(=O)[C@H](CC(C)C)N(C)C(=O)[C@H](CC(C)C)NC(=O)[C@H](Cc2ccccc2)N(C)C(=O)[C@@H](C)NC(=O)C[C@@H](C(=O)N(C)[C@@H](Cc2ccccc2)C(=O)N[C@@H](C)C(=O)N2CCCCC2)NC(=O)[C@H](C(C)C)N(C)C(=O)[C@H](Cc2ccccc2)N(C)C1=O [DP-180] ([dA][NMeF]L[NMeL]T[NMeA][NMeA]I[NMeF][NMeV]D[NMeF]A-Piperidide; lactam N-11)	23	35		
CC(C)C[C@H]1C(=O)N[C@H](C(=O)N(C)[C@@H](Cc2ccccc2)C(=O)N[C@@H](C)C(=O)N2CCCCC2)CC(=O)N(C)CCCC(=O)N[C@@H](C(C)C)C(=O)N(C)[C@@H](Cc2ccccc2)C(=O)N(C)[C@@H](CC(C)C)C(=O)N[C@@H]([C@@H](C)O)C(=O)N(C)[C@@H](C)C(=O)N(C)CC(=O)N1C [DP-385] ([NMeGABA]V[NMeF][NMeL]T[NMeA][Sar][NMeL]D[NMeF]A-Piperidide; lactam N-9)	18	102		
CC(C)C[C@@H]1NC(=O)[C@@H](C)N(C)C(=O)C[C@@H](C(=O)N2CCCCC2)NC(=O)[C@H](CC(C)C)N(C)C(=O)[C@H](Cc2ccccc2)N(C)C(=O)[C@H](CC(C)C)NC(=O)[C@H](Cc2ccccc2)N(C)C(=O)[C@H](C)N(C)C(=O)[C@H]([C@@H](C)O)NC1=O [DP-127] ([dNMeA]LT[NMeA][NMeF]L[NMeF][NMeL]D-Piperidide; lactam N-9)	47	194		
CC(C)C[C@H]1C(=O)N[C@@H]([C@@H](C)O)C(=O)N(C)[C@@H](C)C(=O)N(C)[C@@H](CC(C)C)C(=O)N(C)[C@@H](Cc2ccccc2)C(=O)N[C@@H](COC(C)(C)C)C(=O)N[C@H](C(=O)N2CCCCC2)CC(=O)N(C)CCCC(=O)N(C)[C@@H](C)C(=O)N1C [DP-130] ([NMeGABA][NMeA][NMeL]T[NMeA][NMeL][NMeF]S(tBu)D-Piperidide; lactam N-9)	21	76		
CC[C@H](C)[C@H]1C(=O)N[C@@H](CC(C)C)C(=O)NCC(=O)N(C)[C@@H](CC(C)C)C(=O)N[C@@H](Cc2ccccc2)C(=O)N[C@@H]([C@@H](C)O)C(=O)N(C)[C@@H](C)C(=O)N[C@H](C(=O)N2CCCCC2)CC(=O)N(C)[C@@H](C)C(=O)N[C@@H](Cc2ccccc2)C(=O)N(C)[C@@H](C(C)C)C(=O)N[C@@H](CC(C)C)C(=O)N1C [DP-89] ([NMeA]F[NMeV]L[NMeI]LG[NMeL]FT[NMeA]D-Piperidide; lactam N-12)			23	58
CC(C)C[C@H]1C(=O)N(C)[C@@H](Cc2ccccc2)C(=O)N[C@@H]([C@@H](C)O)C(=O)N(C)[C@@H](C)C(=O)N(C)[C@@H](Cc2ccccc2)C(=O)N(C)[C@@H](C)C(=O)N[C@H](C(=O)N2CCCCC2)CC(=O)N(C)CCC(=O)N(C)[C@@H](C(C)C)C(=O)N[C@@H](C)C(=O)N1C [DP-337] ([NMeβAla][NMeV]A[NMeL][NMeF]T[NMeA][NMeF][NMeA]D-Piperidide; lactam N-10)	17	74		
CC[C@H](C)[C@@H]1NC(=O)[C@H](CC(C)C)NC(=O)[C@H](C)N(C)C(=O)C[C@@H](C(=O)N2CCCCC2)NC(=O)[C@H](CC(C)C)NC(=O)[C@H](Cc2ccccc2)NC(=O)[C@H](Cc2ccccc2)N(C)C(=O)[C@H](CC(C)C)NC(=O)[C@H]([C@@H](C)O)NC(=O)[C@H](Cc2ccccc2)NC1=O [DP-331] ([NMeA]LIFTL[NMeF]FLD-Piperidide; lactam N-10)	0.24	198		
CC(C)C[C@H]1C(=O)N(C)[C@@H](Cc2ccccc2)C(=O)N(C)[C@@H](Cc2ccccc2)C(=O)N[C@@H]([C@@H](C)O)C(=O)N(C)[C@@H](C)C(=O)N(C)[C@@H](CC(C)C)C(=O)N[C@H](C(=O)N2CCCCC2)CC(=O)N(C)[C@@H](C)C(=O)N(C)[C@@H](CC(C)C)C(=O)N(C)[C@@H](CC(C)C)C(=O)N[C@@H](C)C(=O)N1C [DP-158] ([NMeA][NMeL][NMeL]A[NMeL][NMeF][NMeF]T[NMeA][NMeL]D-Piperidide; lactam N-11)	49	41		
CC(C)C[C@H]1C(=O)N[C@@H](COC(C)(C)C)C(=O)N[C@H](C(=O)N2CCCCC2)CC(=O)N(C)[C@@H](C)C(=O)N(C)[C@@H](Cc2ccccc2)C(=O)N(C)[C@@H](CC(C)C)C(=O)N[C@@H]([C@@H](C)O)C(=O)N(C)CC(=O)N1C [DP-523] ([NMeA][NMeF][NMeL]T[Sar][NMeL]S(tBu)D-Piperidide; lactam N-8)	20	99		
CNC(=O)CC[C@@H]1NC(=O)[C@H](CC(C)C)N(C)C(=O)[C@H](C)N(C)C(=O)[C@@H](C(C)C)NC(=O)C[C@@H](C(=O)N2CCCCC2)NC(=O)[C@H]([C@@H](C)O)NC(=O)[C@H](C)N(C)C(=O)CN(C)C(=O)[C@H](CC(C)C)N(C)C(=O)[C@H](Cc2ccccc2)NC(=O)[C@H](Cc2ccccc2)N(C)C1=O [DP-627] ([dV][NMeA][NMeL]E(NHMe)[NMeF]F[NMeL][Sar][NMeA]TD-Piperidide; lactam N-11)	2.4	9		
CC(C)C[C@@H]1NC(=O)[C@H](CC(C)C)N(C)C(=O)[C@H](C)N(C)C(=O)[C@@H](C(C)C)NC(=O)C[C@@H](C(=O)N2CCCCC2)NC(=O)[C@H](CCC(=O)N(C)C)NC(=O)[C@H](CC(C)C)N(C)C(=O)[C@H](C)N(C)C(=O)[C@H](CC(C)C)N(C)C(=O)[C@H](Cc2ccccc2)NC(=O)[C@H](Cc2ccccc2)N(C)C1=O [DP-618] ([dV][NMeA][NMeL]L[NMeF]F[NMeL][NMeA][NMeL]E(NMe2)D-Piperidide; lactam N-11)	28	39		
CC[C@H](C)[C@H]1C(=O)N[C@H](C(=O)N2CCCCC2)CC(=O)N(C)CCCC(=O)N(C)[C@@H](Cc2ccccc2)C(=O)N[C@@H]([C@@H](C)O)C(=O)N(C)CC(=O)N[C@@H](COC(C)(C)C)C(=O)N(C)[C@@H](CC(C)C)C(=O)N(C)[C@@H](CC(C)C)C(=O)N1C [DP-272] ([NMeGABA][NMeF]T[Sar]S(tBu)[NMeL][NMeL][NMeI]D-Piperidide; lactam N-9)	49	82		
CC(C)C[C@H]1C(=O)N[C@@H](Cc2ccccc2)C(=O)N[C@H](C(=O)N(C)[C@@H](Cc2ccccc2)C(=O)N[C@@H](C)C(=O)N2CCCCC2)CC(=O)N(C)[C@@H](C)C(=O)N[C@@H]([C@@H](C)O)C(=O)N(C)[C@@H](C)C(=O)N[C@@H](C(C)C)C(=O)N(C)CC(=O)N(C)[C@@H](Cc2ccccc2)C(=O)N1C [DP-311] ([NMeA]T[NMeA]V[Sar][NMeF][NMeL]FD[NMeF]A-Piperidide; lactam N-9)			48	74
CC[C@H](C)[C@@H]1NC(=O)[C@H](C)N(C)C(=O)C[C@@H](C(=O)N2CCCCC2)NC(=O)[C@H](Cc2ccccc2)NC(=O)[C@H](CC(C)C)N(C)C(=O)[C@H](C(C)C)N(C)C(=O)[C@H](C)N(C)C(=O)[C@H]([C@@H](C)O)NC(=O)[C@H](Cc2ccccc2)N(C)C(=O)[C@H](C)N(C)C(=O)[C@H](CC(C)C)N(C)C1=O [DP-481] ([NMeA]I[NMeL][NMeA][NMeF]T[NMeA][NMeV][NMeL]FD-Piperidide; lactam N-11)	31	82		
CC[C@H](C)[C@H](NC(=O)[C@H](CC(C)C)N(C)C(=O)[C@@H]1CCCN1C(=O)[C@H](Cc1ccccc1)N(C)C(=O)[C@@H]1CC(=O)N[C@H](C(C)C)C(=O)N[C@@H](C)C(=O)N(C)[C@@H](Cc2ccccc2)C(=O)N(C)[C@@H](C)C(=O)N[C@@H](Cc2ccccc2)C(=O)N(C)[C@@H](CC(C)C)C(=O)N[C@@H]([C@@H](C)O)C(=O)N1)C(=O)N1CCCCC1 [DP-929] ([dV]A[NMeF][NMeA]F[NMeL]TD[NMeF]P[NMeL]I-Piperidide; lactam N-8)	12	49		
CC(C)C[C@@H]1NC(=O)[C@@H]2CCCN2C(=O)[C@H](Cc2ccccc2)N(C)C(=O)[C@H](C)N(C)C(=O)[C@H]([C@@H](C)O)NC(=O)[C@@H](C(C)C)NC(=O)C[C@@H](C(=O)N2CCCCC2)NC(=O)[C@H](CC(C)C)N(C)C(=O)[C@H](C)N(C)C(=O)[C@H](CCc2ccccc2)NC(=O)[C@H](C(C)C)N(C)C1=O [DP-732] ([dV]T[NMeA][NMeF]PL[NMeV][hPhe][NMeA][NMeL]D-Piperidide; lactam N-11)	26	57		
CC[C@H](C)[C@@H]1NC(=O)[C@@H](C)N(C)C(=O)C[C@@H](C(=O)N(C)[C@@H](Cc2ccccc2)C(=O)N[C@@H](C)C(=O)N2CCCCC2)NC(=O)[C@H](Cc2ccccc2)N(C)C(=O)CN(C)C(=O)[C@H]([C@@H](C)O)NC(=O)[C@H](C)N(C)C(=O)[C@H](C(C)C)N(C)C(=O)[C@H](Cc2ccccc2)NC(=O)[C@H](CC(C)C)N(C)C(=O)[C@H](CC(C)C)N(C)C1=O [DP-183] ([dNMeA]I[NMeL][NMeL]F[NMeV][NMeA]T[Sar][NMeF]D[NMeF]A-Piperidide; lactam N-11)	29	25		
CC[C@H](C)[C@H]1C(=O)N[C@@H](C)C(=O)N(C)[C@@H](CC(C)C)C(=O)N[C@@H]([C@@H](C)O)C(=O)N[C@@H](Cc2ccccc2)C(=O)N(C)[C@@H](Cc2ccccc2)C(=O)N(C)[C@@H](CC(C)C)C(=O)N[C@@H](COC(C)(C)C)C(=O)N(C)[C@@H](CC(C)C)C(=O)N(C)[C@@H](C)C(=O)N[C@@H](C)CC(=O)N[C@H](C(C)C)C(=O)N1C [DP-760] (cyclo(A[NMeL]TF[NMeF][NMeL]S(tBu)[NMeL][NMeA][β3hA][dV][NMeI]))			28	194
